Publication PMC7961380, “A Systematic Study of the In Vitro Pharmacokinetics and Estimated Human In Vivo Clearance of Indole and Indazole-3-Carboxamide Synthetic Cannabinoid Receptor Agonists Detected on the Illicit Drug Market” (Molecules, 2021)

Key:
[1] = Plasma protein binding by equilibrium dialysis; assay type: in vitro ADME, human; details: human, pooled human plasma, pH 7.4, equilibrium dialysis 5 h, 37 °C, 10 µg mL^−1; read-out: PPB (%) (converted)
Procedure: Plasma protein binding was assessed by equilibrium dialysis in a 96-well dialysis block (HTDialysis, Ledyard, CT, USA). Dialysis membranes (12–14 kDa) were soaked in deionised water for at least 60 min. Membranes were soaked overnight at 4 °C in ethanol:water 20:80% v/v and then rinsed with deionised water immediately prior to use. […] Spiked plasma (150 µL) was dialysed against isotonic phosphate buffer (pH 7.4) (150 µL) for 5 h at 37 °C with shaking at 100 rpm. Thermal degradation controls for each test compound were kept at 37 °C and 4 °C. Blank control plasma and buffer were included in the incubation. Following incubation, dialysed plasma samples and thermal degradation controls (50 µL) were added to drug-free buffer (50 µL), and dialysed buffer samples (50 µL) were added to drug-free plasma (50 µL). […] Supernatant (150 µL) was added to 50 µL deionised water and samples were analysed by UPLC-MS/MS as described above. Dialysed buffer from each well was tested for protein contamination using BCA protein assay reagent to determine whether membranes had been compromised.
Bu = Analyte/IS ratio determined in buffer side (2) Fraction unbound, fu=(100−% bound)/100

[2] = Metabolic stability, pooled human liver microsome incubations
Procedure: Total incubation volume was 500 µL. Procedure: Test compound working solutions (50 µM in potassium phosphate buffer (pH 7.4)) were prepared (<1% DMSO). pHLM were thawed and diluted in potassium phosphate buffer (pH 7.4). […] Reactions were quenched in 200 µL ACN spiked with donepezil (IS, 50 ng mL^−1). […] Samples were analysed by UPLC-MS/MS in a 96 deep-well 2 mL plate. Each SCRA was incubated at least in triplicate but additional incubations were carried out across a number of analytical batches, giving greater replication and a greater understanding of system variability. Microsomal scaling factors used for human liver microsome incubations in the literature vary. Intrinsic clearance and predicted in vivo clearance rates calculated using alternative scaling factors found in the literature is provided in Section S6 of the supplementary information, to aid comparison of data between publications.
Equations used for in vitro intrinsic clearance calculation and human in vivo clearance […]
The equations used for in vitro intrinsic clearance calculation and human in vivo clearance estimation […]
Microsomal clearance (HLM incubations) in mL min-1 mg microsomal protein-1 [3]
Intrinsic clearance (whole-liver dimensions) (HLM incubations) in mL min-1 kg-1 [3] CL = k x V x [Liver](g) x SF Eqn. 7 […]
mg g microsomal protein-1 [7]
Intrinsic clearance (whole-liver dimensions) (HHep incubations) in mL min-1 kg-1 [4] CL = k x V x hepatocytes/g liver x [Liver](g) Eqn. 8 […]
Where: hepatocytes/g liver = 107x10^6 cells/g liver
Hepatic clearance in mL min-1 kg-1 [3]
[…] Eqn. 9
Where: Q = hepatic blood flow, 21 mL min-1 kg-1 [9]; fu = fraction unbound (plasma); CLint = […]
Estimated human hepatic extraction ratio [5]
Intrinsic clearance data – pooled human liver microsome incubations […]
table S4-28. Intrinsic clearance and predicted in vivo data calculated using alternative microsomal scaling factors found in the literature – 32 [10] and 45 [11] mg microsomal protein per gram liver – are provided in tables S29 and S30, respectively.

[3] = system: pooled human cryopreserved hepatocytes (pHHeps); assay: Metabolic stability, pooled human cryopreserved hepatocyte incubations
[4] = Short-term plasma stability with and without esterase inhibitors; details: 3 h, 37 °C
[5] = pHLM, scaling factor 32 mg microsomal protein per gram liver
[6] = pHLM, scaling factor 45 mg microsomal protein per gram liver
[7] = pHHeps, 99x10^6 hepatocytes per gram liver

COC(=O)[C@H](NC(=O)c1nn(CCCCF)c2ccccc12)C(C)(C)C [(R)-4F-MDMB-BINACA (4), methyl 2-[1-(4-fluorobutyl)-1H-indazole-3-carboxamido]-3,3-dimethylbutanoate]
fraction unbound at 5 h, 10 µg mL^−1 [1]: 0.111
Predicted In Vivo Hepatic Clearance, CLH ([2]; from pHLM CLint, well-stirred model with plasma fu, Q 21 mL min^−1 kg^−1): 0.513 ± 0.0144 L/h/kg
Hepatic extraction ratio, EH ([2]; from pHLM incubations): 0.41 ± 0.012
T1/2 ([2]; pHLM 0.5 mg mL^−1, 0.5 µM, NADPH, 37 °C, n ≥ 3 ± SD): 14 ± 0.68 min
% parent compound remaining, Average ([2]; pHLM, 3 min): 78.8%
% parent compound remaining, Average ([2]; pHLM, 6 min): 72.8%
% parent compound remaining, Average ([2]; pHLM, 9 min): 54.1%
% parent compound remaining, Average ([2]; pHLM, 15 min): 48.4%
% parent compound remaining, Average ([2]; pHLM, 30 min): 26.6%
Intrinsic clearance, CLint ([2]; pHLM, alternative microsomal scaling factor 32 mg microsomal protein per gram liver): 4.74 L/h/kg
Intrinsic clearance, CLint ([2]; pHLM, alternative microsomal scaling factor 45 mg microsomal protein per gram liver): 6.72 L/h/kg
Microsomal Intrinsic Clearance, CLint micr ([2]; pHLM, n ≥ 3 ± SD): 0.096 ± 0.005 mL min^−1 mg Microsomal Protein^−1
Hepatic extraction ratio, EH [2, 5]: 0.30 ± 0.010
Predicted in vivo hepatic clearance, CLH [2, 5]: 0.372 L/h/kg
Hepatic extraction ratio, EH [2, 6]: 0.37 ± 0.011
Predicted in vivo hepatic clearance, CLH [2, 6]: 0.467 L/h/kg
Predicted In Vivo Hepatic Clearance, CLH ([3]; from pHHeps CLint, well-stirred model with plasma fu, Q 21 mL min^−1 kg^−1): 0.526 ± 0.0858 L/h/kg
Hepatic extraction ratio, EH ([3]; from pHHeps incubations): 0.42 ± 0.068
T1/2 ([3]; pHHeps 0.25 million cells mL^−1, 0.5 µM, 37 °C, n ≥ 3 ± SD): 58 ± 17.2 min
Hepatic extraction ratio, EH [3, 7]: 0.40 ± 0.067
Predicted in vivo hepatic clearance, CLH [3, 7]: 0.503 ± 0.084 L/h/kg
% parent compound remaining, Average ([3]; pHHeps, 3 min): 89.2%
% parent compound remaining, Average ([3]; pHHeps, 6 min): 84.6%
% parent compound remaining, Average ([3]; pHHeps, 9 min): 91.0%
% parent compound remaining, Average ([3]; pHHeps, 15 min): 82.6%
% parent compound remaining, Average ([3]; pHHeps, 30 min): 65.7%
% parent compound remaining, Average ([3]; pHHeps, 45 min): 48.5%
% parent compound remaining, Average ([3]; pHHeps, 60 min): 37.9%
Intrinsic clearance, CLint ([3]; pHHeps, alternative hepatocyte cell density 99x10^6 hepatocytes per gram liver): 7.68 ± 2.08 L/h/kg
Parent Compound Remaining (%), Esterase Inhibitors ([4]; pH 7.4, BNPP and PMSF 500 µM each): 96.0 ± 1.7%
Parent Compound Remaining (%), No Esterase Inhibitors ([4]; pH 7.4, pooled human plasma): 91.1 ± 6.8%
